Reference: ChEMBL document CHEMBL6074628, “Rational design, synthesis and pharmacological characterization of novel aminopeptidase A inhibitors” (Bioorg Med Chem Lett, 2024)
≈ marks a conversion by molar mass, not a printed value.

Assays:
[1] = target: T1, Glutamyl aminopeptidase (Mus musculus, UniProt P16406); experiment: Inhibition of recombinant mouse aminopeptidase A activity
T1 sequence (P16406 whole entry): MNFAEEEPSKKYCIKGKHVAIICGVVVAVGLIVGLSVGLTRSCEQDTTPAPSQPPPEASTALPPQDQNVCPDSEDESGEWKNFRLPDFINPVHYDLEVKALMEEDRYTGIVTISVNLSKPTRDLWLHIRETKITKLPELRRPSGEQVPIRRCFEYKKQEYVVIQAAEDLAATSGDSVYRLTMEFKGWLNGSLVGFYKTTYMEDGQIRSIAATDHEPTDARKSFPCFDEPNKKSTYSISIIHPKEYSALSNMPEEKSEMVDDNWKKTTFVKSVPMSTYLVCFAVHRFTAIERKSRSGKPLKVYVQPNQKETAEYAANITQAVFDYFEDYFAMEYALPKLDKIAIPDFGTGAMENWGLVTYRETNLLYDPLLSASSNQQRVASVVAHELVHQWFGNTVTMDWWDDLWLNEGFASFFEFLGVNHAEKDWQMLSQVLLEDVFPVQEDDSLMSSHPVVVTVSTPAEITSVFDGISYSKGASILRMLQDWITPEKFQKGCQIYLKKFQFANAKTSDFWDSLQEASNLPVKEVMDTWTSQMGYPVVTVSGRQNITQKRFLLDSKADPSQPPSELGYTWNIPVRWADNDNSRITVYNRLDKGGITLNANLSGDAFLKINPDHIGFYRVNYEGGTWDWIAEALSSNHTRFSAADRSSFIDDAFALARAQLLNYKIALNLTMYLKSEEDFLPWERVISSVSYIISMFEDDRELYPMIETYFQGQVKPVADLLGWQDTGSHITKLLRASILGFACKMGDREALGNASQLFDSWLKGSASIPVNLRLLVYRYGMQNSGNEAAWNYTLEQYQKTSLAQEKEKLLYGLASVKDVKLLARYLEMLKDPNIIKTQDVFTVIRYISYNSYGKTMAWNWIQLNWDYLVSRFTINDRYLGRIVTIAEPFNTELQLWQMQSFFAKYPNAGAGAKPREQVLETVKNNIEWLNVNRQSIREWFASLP

[2] = Inhibition of APA (unknown origin)
[3] = target: Aminopeptidase N (Homo sapiens, UniProt P15144); experiment: Inhibition of APN (unknown origin)
Chain of Aminopeptidase N (P15144 whole entry): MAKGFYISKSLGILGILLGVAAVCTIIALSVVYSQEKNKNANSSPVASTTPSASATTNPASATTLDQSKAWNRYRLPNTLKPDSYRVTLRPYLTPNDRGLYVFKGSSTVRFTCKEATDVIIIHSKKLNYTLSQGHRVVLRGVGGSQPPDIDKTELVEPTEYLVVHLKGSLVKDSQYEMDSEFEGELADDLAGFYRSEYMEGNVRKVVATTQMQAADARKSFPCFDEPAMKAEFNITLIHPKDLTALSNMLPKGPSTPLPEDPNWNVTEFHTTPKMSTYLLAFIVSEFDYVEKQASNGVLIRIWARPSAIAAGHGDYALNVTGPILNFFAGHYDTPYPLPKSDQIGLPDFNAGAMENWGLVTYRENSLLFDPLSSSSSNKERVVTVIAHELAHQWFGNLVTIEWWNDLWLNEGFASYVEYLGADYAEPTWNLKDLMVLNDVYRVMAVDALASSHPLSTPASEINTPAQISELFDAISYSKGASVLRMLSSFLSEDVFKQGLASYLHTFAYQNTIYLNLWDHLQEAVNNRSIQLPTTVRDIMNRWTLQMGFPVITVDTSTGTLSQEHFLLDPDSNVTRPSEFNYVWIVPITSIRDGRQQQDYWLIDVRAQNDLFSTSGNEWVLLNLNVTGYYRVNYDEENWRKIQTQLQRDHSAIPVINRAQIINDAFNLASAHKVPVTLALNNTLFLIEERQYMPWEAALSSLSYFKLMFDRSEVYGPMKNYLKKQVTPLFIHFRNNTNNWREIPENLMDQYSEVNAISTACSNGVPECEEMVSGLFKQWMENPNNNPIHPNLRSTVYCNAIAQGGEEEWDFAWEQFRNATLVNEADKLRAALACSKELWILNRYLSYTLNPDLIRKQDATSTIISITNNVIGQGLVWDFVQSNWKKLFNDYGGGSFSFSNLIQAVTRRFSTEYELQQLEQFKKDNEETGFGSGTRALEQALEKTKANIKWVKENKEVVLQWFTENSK

[4] = Inhibition of rabbit kidney aminopeptidase A using GluNA as substrate incubated for 1 hrs by absorbance based assay
[5] = target: Cytochrome P450 2C9 (Homo sapiens, UniProt P11712); experiment: Inhibition of CYP2C9 (unknown origin)
Chain of Cytochrome P450 2C9 (P11712 whole entry): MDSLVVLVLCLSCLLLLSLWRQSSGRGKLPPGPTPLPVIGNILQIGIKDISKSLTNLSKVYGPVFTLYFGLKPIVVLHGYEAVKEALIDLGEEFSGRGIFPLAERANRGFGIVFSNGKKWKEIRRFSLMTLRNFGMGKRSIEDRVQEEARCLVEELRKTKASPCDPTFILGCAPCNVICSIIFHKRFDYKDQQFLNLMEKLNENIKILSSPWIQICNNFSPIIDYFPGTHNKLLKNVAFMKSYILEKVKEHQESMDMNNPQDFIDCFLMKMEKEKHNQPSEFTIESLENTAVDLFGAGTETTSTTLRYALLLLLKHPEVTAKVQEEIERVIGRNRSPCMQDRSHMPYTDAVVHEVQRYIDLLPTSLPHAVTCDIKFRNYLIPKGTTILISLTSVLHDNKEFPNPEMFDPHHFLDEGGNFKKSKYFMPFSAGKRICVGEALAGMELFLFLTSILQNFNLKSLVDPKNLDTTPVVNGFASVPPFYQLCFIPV

[6] = target: Cytochrome P450 2D6 (Homo sapiens, UniProt P10635); experiment: Inhibition of CYP2D6 (unknown origin)
Chain of Cytochrome P450 2D6 (P10635 whole entry): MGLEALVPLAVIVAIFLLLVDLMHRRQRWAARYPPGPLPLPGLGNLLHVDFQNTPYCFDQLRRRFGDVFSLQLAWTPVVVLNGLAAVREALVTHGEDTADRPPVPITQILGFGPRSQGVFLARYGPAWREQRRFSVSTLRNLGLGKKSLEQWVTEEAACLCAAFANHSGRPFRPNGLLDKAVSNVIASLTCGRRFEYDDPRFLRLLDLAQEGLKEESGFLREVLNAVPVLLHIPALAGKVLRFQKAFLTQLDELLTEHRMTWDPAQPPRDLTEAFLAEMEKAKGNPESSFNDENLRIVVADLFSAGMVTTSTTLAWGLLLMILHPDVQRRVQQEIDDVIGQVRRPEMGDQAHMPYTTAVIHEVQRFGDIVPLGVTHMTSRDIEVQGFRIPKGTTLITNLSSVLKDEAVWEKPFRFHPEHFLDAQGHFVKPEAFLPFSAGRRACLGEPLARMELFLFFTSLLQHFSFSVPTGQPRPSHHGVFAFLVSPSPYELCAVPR

[7] = target: T2, Cytochrome P450 2B6 (Homo sapiens, UniProt P20813); experiment: Inhibition of CYP2B6 (unknown origin)
T2 sequence (P20813 whole entry): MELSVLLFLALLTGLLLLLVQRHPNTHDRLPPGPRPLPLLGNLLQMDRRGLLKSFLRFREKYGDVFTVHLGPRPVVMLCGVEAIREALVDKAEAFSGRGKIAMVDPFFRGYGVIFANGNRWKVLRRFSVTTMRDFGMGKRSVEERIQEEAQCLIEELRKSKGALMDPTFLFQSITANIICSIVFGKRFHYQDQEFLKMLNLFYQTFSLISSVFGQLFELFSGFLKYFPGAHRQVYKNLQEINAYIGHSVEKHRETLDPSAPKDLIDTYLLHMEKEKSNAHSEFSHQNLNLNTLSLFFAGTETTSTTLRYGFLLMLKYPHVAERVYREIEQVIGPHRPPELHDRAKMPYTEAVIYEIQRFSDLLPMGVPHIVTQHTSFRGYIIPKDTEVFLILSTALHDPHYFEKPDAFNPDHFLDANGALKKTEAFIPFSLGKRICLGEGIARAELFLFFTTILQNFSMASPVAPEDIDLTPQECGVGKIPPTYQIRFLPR

[8] = Stability in rat hepatocyte assessed as parent compound remaining measured after 1 hrs; details: hepatocytes
[9] = Drug concentration in Sprague-Dawley rat cerebrospinal fluid at 2 mg/kg, iv measured after 60 mins
[10] = target: T3, Cytochrome P450 1A2 (Homo sapiens, UniProt P05177); experiment: Inhibition of CYP1A2 (unknown origin)
T3 sequence (P05177 whole entry): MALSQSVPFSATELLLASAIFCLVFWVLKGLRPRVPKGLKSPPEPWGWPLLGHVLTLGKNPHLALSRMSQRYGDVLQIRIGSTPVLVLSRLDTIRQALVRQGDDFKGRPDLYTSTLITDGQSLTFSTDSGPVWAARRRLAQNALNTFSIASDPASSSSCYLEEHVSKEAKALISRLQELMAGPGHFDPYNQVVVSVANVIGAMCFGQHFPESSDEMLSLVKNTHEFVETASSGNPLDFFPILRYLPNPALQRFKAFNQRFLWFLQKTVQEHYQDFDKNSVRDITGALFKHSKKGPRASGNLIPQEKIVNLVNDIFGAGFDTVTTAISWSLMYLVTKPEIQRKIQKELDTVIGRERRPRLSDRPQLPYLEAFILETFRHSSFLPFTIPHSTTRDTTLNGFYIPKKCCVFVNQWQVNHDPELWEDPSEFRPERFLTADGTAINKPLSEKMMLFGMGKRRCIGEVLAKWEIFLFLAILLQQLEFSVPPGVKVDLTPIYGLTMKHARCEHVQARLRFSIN

[11] = Apparent permeability in human Caco-2 cells
[12] = Solubility of compound in phosphate buffer at pH 7.4
[13] = target: Cytochrome P450 2C19 (Homo sapiens, UniProt P33261); experiment: Inhibition of CYP2C19 (unknown origin)
Chain of Cytochrome P450 2C19 (P33261 whole entry): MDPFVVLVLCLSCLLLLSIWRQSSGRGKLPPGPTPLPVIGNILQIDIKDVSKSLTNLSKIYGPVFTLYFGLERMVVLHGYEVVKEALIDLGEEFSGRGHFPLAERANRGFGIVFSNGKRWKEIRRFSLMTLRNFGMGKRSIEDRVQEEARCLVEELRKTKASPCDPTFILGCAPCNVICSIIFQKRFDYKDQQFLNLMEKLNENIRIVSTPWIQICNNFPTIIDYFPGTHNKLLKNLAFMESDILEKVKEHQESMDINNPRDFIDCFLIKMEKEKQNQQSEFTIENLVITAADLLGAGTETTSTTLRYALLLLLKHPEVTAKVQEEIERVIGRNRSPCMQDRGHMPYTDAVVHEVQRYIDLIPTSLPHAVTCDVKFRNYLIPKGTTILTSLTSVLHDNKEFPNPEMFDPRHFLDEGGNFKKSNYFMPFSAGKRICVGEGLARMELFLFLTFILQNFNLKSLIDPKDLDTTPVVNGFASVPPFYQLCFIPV

[14] = in vivo; details: mouse, po, 20 mg/kg
Description: AUC (0 to t) in mouse at 20 mg/kg, po

[15] = Half-life in Sprague-Dawley rat at 2 mg/kg, iv; details: in vivo
[16] = in vivo; details: mouse
[17] = in vivo; details: Sprague-Dawley, rat, iv, 2 mg/kg
Description: Renal clearance in Sprague-Dawley rat at 2 mg/kg, iv

[18] = in vivo; details: mouse, iv, 2 mg/kg
Description: AUC (0 to t) in mouse at 2 mg/kg, iv

[19] = Drug concentration in Sprague-Dawley rat cerebrospinal fluid at 2 mg/kg, iv measured after 5 mins
[20] = Drug concentration in Sprague-Dawley rat brain at 2 mg/kg, iv measured after 60 mins
[21] = Stability in human hepatocyte assessed as parent compound remaining measured after 1 hrs; details: hepatocytes
[22] = Drug concentration in Sprague-Dawley rat brain at 2 mg/kg, iv measured after 5 mins
[23] = in vivo; details: Sprague-Dawley, rat, iv, 2 mg/kg; remark: listed apart in the source
Description: Cmax in Sprague-Dawley rat at 2 mg/kg, iv

[24] = Hepatic extraction ratio in Sprague-Dawley rat at 2 mg/kg, iv; details: in vivo
[25] = target: Cytochrome P450 3A4 (Homo sapiens, UniProt P08684); experiment: Inhibition of CYP3A4 (unknown origin)
Chain of Cytochrome P450 3A4 (P08684 whole entry): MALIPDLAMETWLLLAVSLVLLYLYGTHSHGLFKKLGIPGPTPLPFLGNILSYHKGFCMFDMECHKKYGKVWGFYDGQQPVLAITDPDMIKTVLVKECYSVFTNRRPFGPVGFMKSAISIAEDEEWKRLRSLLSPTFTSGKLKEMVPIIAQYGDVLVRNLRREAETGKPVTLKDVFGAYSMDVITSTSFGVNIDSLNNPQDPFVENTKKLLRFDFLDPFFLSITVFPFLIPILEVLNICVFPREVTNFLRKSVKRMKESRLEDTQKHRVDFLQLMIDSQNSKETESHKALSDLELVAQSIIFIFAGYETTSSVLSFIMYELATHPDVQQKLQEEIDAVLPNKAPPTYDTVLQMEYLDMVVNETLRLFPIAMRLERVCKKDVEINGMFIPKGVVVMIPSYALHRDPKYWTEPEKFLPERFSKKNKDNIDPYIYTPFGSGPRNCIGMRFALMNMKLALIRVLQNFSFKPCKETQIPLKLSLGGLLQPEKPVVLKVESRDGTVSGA

An IC50 [1] of 1 nM was found for `NC(CCC(=O)O)P(=O)(O)CCc1ccccc1OC1CCCCC1` (centres undefined) in this work.
An IC50 [1] of 10 nM was found for `NC(CCC(=O)O)P(=O)(O)CCc1ccccc1Oc1ccccc1` (centres undefined) in this work.
With `N[C@@H](CCS(=O)(=O)O)[C@@H](S)CCc1ccccc1` the Ki [2] was 30 nM and the Ki [3] was > 10000 nM.
An IC50 [1] of 42 nM was found for `NC(CCC(=O)O)P(=O)(O)CCc1ccccc1-c1ccccc1` (centres undefined) in this work.
An IC50 [1] of 54 nM was found for `COc1c(Cl)cccc1CCP(=O)(O)C(N)CCC(=O)O` (centres undefined) in this work.
An IC50 [1] of 30 nM was found for `Cn1cc(CCP(=O)(O)C(N)CCC(=O)O)c2ccccc21` (centres undefined) in this work.
An IC50 [1] of 29 nM was found for `NC(CCC(=O)O)P(=O)(O)CCc1ccccc1` (racemic) in this work.
An IC50 [1] of 7 nM was found for `NC(CCC(=O)O)P(=O)(O)CCc1cccc2ccccc12` (centres undefined) in this work.
An IC50 [1] of 26 nM was found for `NC(CCC(=O)O)P(=O)(O)CCc1cccc(Cl)c1Cl` (centres undefined) in this work.
A Ki [4] of 140 nM was found for `N[C@H](CS)CCC(=O)O` in this work.
An IC50 [1] of 21 nM was found for `NC(CCC(=O)O)P(=O)(O)CCc1ccc2ccccc2c1` (centres undefined) in this work.
An IC50 [1] of 420 nM was found for `NC(CCC(=O)O)P(=O)(O)CCn1ncc2ccccc21` (centres undefined) in this work.
An IC50 [1] of 9 nM was found for `COc1ccccc1CCP(=O)(O)C(N)CCC(=O)O` (centres undefined) in this work.
An IC50 [1] of 28 nM was found for `COc1cccc(CCP(=O)(O)C(N)CCC(=O)O)c1` (centres undefined) in this work.
An IC50 [1] of 660 nM was found for `N[C@H](CCC(=O)O)P(=O)(O)CCc1ccccc1` in this work.
An IC50 [1] of 21 nM was found for `NC(CCC(=O)O)P(=O)(O)CCc1ccccc1Cl` (centres undefined) in this work.
An IC50 [1] of 61 nM was found for `NC(CCC(=O)O)P(=O)(O)CCc1cccc(Cl)c1` (centres undefined) in this work.
An IC50 [1] of 930 nM was found for `NC(CCCC(=O)O)P(=O)(O)CCc1ccccc1` (racemic) in this work.
An IC50 [1] of 54 nM was found for `NC(CCC(=O)O)P(=O)(O)CCCc1ccccc1` (racemic) in this work.
An IC50 [1] of 26 nM was found for `NC(CCC(=O)O)P(=O)(O)CCc1ccccc1OC(F)(F)F` (centres undefined) in this work.
An IC50 [1] of 9 nM was found for `NC(CCC(=O)O)P(=O)(O)CCc1ccccc1OC1CCCC1` (centres undefined) in this work.
An IC50 [1] of 24 nM was found for `COc1ccc(CCP(=O)(O)C(N)CCC(=O)O)cc1` (centres undefined) in this work.
An IC50 [1] of 10 nM was found for `N[C@@H](CCC(=O)O)P(=O)(O)CCc1ccccc1` in this work.
An IC50 [1] of 5400 nM was found for `NC(CCP(=O)(O)O)P(=O)(O)CCc1ccccc1` (racemic) in this work.
An IC50 [1] of 41 nM was found for `NC(CCC(=O)O)P(=O)(O)CCC1CCCCC1` (centres undefined) in this work.
An IC50 [1] of 23 nM was found for `Cc1ccc(CCP(=O)(O)C(N)CCC(=O)O)cc1` (centres undefined) in this work.
An IC50 [1] of 27 nM was found for `Cc1cccc(CCP(=O)(O)C(N)CCC(=O)O)c1` (centres undefined) in this work.
An IC50 [1] of 310 nM was found for `NC(CCS(=O)(=O)O)P(=O)(O)CCc1ccccc1` (racemic) in this work.
An IC50 [1] of 18 nM was found for `Cc1ccccc1CCP(=O)(O)C(N)CCC(=O)O` (centres undefined) in this work.
An IC50 [1] of 39 nM was found for `NC(CCC(=O)O)P(=O)(O)Cc1ccccc1` (racemic) in this work.
With `COc1ccccc1CCP(=O)(O)[C@@H](N)CCC(=O)O` the IC50 [5] was > 25000 nM, the IC50 [6] was > 25000 nM and the IC50 [7] was > 25000 nM. For the same compound, the remaining at 1 h [8] was 93%, the concentration at 1 h [9] was 115 ng/mL and the IC50 [10] was > 25000 nM. For the same compound, the Papp [11] was 0.5 ×10⁻⁶ cm/s, the solubility [12] was 165 µM (≈ 49.7 µg/mL) and the IC50 [1] was 4 nM. The IC50 [13] was > 25000 nM, the AUC(0-t) [14] was 37.6 ng·h/mL and the half-life [15] was ~30 min. The bioavailability [16] was 4.1%, the CL renal [17] was 0.6 mL/min and the AUC(0-t) [18] was 919 ng·h/mL. For the same compound, the concentration at 5 min [19] was 281 ng/mL, the IC50 [3] was > 20000 nM and the concentration at 1 h [20] was 15.6 ng/g. The remaining at 1 h [21] was 99%, the concentration at 5 min [22] was 50.2 ng/g and the Cmax [23] was 4920 ng/mL. The hepatic extraction ratio [24] was ~0.45 and the IC50 [25] was > 25000 nM.
